Values of other authors, collected in patent publication US9456982B2, “Solid formulations of niacin to counteract cold extremities” (BE-WARM LLC, priority 2014, dated 2016).

Conditions: therapeutic niacin doses; sometimes longer

## O=C(O)c1cccnc1 [niacin, pyridine-3-carboxylic acid]
  duration of SVFS flush: 15 to 30 min
